Data on 18 molecules can be found in US7163928B2 (CV Therapeutics, Inc., priority 2003, dated 2007).

Where “and” joins values, the source holds several entries; their conditions need not be identical. Identical values can stand only once.

Tested on in one data set: not given
Assay: not given
Particulars: cited from earlier work.
Regarding `Nc1ncnc2c1ncn2[C@@H]1O[C@H](CO)[C@@H](O)[C@H]1O` [adenosine, Adenosine], the half-life entry is reported as “less than 10 sec”.

The target in another data set is T1, A1 adenosine receptor (Mesocricetus auratus, UniProt A0A1U8BVR4).
T1 construct: A1 adenosine receptor sites on the membranes of DDT cells; endogenous in cells; host or cells: DDT1 cells (hamster vas deferens smooth muscle cell line), membrane preparation
T1 sequence (A0A1U8BVR4 1-326): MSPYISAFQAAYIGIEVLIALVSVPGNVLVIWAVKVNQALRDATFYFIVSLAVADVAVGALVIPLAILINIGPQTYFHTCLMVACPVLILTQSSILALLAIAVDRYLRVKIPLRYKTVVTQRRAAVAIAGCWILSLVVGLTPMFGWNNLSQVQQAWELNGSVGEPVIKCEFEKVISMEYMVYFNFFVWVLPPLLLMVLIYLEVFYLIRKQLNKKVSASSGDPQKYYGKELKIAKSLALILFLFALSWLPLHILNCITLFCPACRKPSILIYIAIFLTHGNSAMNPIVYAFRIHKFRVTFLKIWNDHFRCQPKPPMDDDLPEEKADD
Description: Competitive binding assay, DDT cell membranes, 3H-CPX. Set-up: species or system hamster. The note with it: 1.5 nM 3H-CPX, 10 μM GTP-γS, 23° C. 90 minutes, read-out: Ki (low). Here is the method: DDT cells (hamster vas deferens smooth muscle cell line) were grown as monolayers in petri dishes using Dulbecco's Modified Eagle's Medium (DMEM) containing 2.5 μg mL^−1 amphotericin B, 100 U mL^−1 penicillin G, 0.1 mg mL^−1 streptomycin sulfate and 5% fetal bovine serum in a humidified atmosphere of 95% air and 5% CO2. Cells were subcultured twice weekly by dispersion in Hank's Balanced Salt Solution (HBSS) without the divalent cations and containing 1 mM EDTA. The cells were then seeded in growth medium at a density of 1.2×10^5 cells per plate and experiments were performed 4 days later at approximately one day preconfluence.
Attached cells were washed twice with HBSS (2×10 mL), scraped free of the plate with the aid of a rubber policeman in 5 mL of 50 mM Tris-HCl buffer pH 7.4 at 4° C. and the suspension homogenized for 10 s. The suspension was then centrifuged at 27,000×g for 10 min. The pellet was resuspended in homogenization buffer by vortexing and centrifuged as described above. The final pellet was resuspended in 1 vol of 50 mM Tris-HCl buffer pH 7.4 containing 5 mM MgCl2 for A1 adenosine receptor assays. For the [^35S]GTPγS binding assay the final pellet was resuspended in 50 mM Tris-HCl pH 7.4 containing 5 mM MgCl2, 100 mM NaCl and 1 mM dithiothreitol. This membrane suspension was then placed in liquid nitrogen for 10 min, thawed and used for assays. The protein content was determined with a Bradford™ Assay Kit using bovine serum albumin as standard.
Compounds of Formula I were assayed to determine their affinity for the A1 adenosine receptor sites on the membranes of DDT cells. Briefly, 50–70 ug of membrane protein were incubated in a mixture containing 2 U/ml adenosine deaminase, 10 μM GTP-γS in 5 mM HE buffer containing 5 mM MgCl2 in glass tubes Stock solutions of the compounds of the invention were serially diluted (10^−10M to 10^−4M) in HE buffer or HE buffer alone (to determine total binding) and added to the incubation mixture. Finally, tritiated […] (^3H-CPX) was added to a final concentration of 1.5 nM. After incubation at 23° C. 90 minutes, the reaction was stopped by filtration on a Brandel MR24 cell harvester and washing with ice-cold Tris-EDTA buffer (three times, approximate volume 10 ml/wash) over Whatman GF/B filters (presoaked for 1 h in 0.3% polyethylenimine to reduce non-specific binding). Filters were transferred to scintillation vials and 5 ml of Scintisafe (VWR, Brisbane, Calif.) was added. The amount of radioactivity retained on the filters was determined by liquid scintillation spectrometry. Protein determinations were by the method of Bradford (1976. Anal. Biochem. 72:248) using bovine serum albumin as the standard.
As to “(3R)-3-({9-[(5S,2R,3R)-3-hydroxy-5-(hydroxymethyl)oxolan-2-yl]purin-6-yl}amino)pyrrolidinyl 2-fluorophenyl ketone [CVT 4606]”, the Ki (commonly the equilibrium dissociation constant of an inhibitor or competing ligand from its target) is 2.84 µM. On to `OC[C@@H]1C[C@@H](O)[C@H](n2cnc3c(N[C@@H]4CCCCC4O)ncnc32)O1` (stereo partly drawn) [CVT 4622, 2-{6-[((1R)-2-hydroxycyclohexyl)amino]purin-9-yl}(5S,2R,3R)-5-(hydroxymethyl)oxolan-3-ol], for which the Ki is 4.44 µM and 2.94 µM. Still for that read-out and setting: in the case of “(3R)-3-({9-[(5S,2R,3R)-3-hydroxy-5-(hydroxymethyl)oxolan-2-yl]purin-6-yl}amino)pyrrolidinyl 4-(trifluoromethyl)phenyl ketone [CVT 4610]” it was above 5 µM. For “(3R)-3-({9-[(5S,2R,3R)-3-hydroxy-5-(hydroxymethyl)oxolan-2-yl]purin-6-yl}amino)pyrrolidinyl 4-fluorophenyl ketone [CVT 4607]”, the Ki is above 5 µM. The same measure, in the same setting: the same measure for `OC[C@@H]1C[C@@H](O)[C@H](n2cnc3c(N[C@H]4CC[C@H](O)CC4)ncnc32)O1`: above 5 µM; for `CC(=O)N1CC[C@@H](Nc2ncnc3c2ncn3[C@@H]2O[C@H](CO)C[C@H]2O)C1` [CVT 4617, (3R)-3-({9-[(5S,2R,3R)-3-hydroxy-5-(hydroxymethyl)oxolan-2-yl]purin-6-yl}amino)-1-acetylpyrrolidine]: above 5 µM. For the molecule “(3R)-3-({9-[(5S,2R,3R)-3-hydroxy-5-(hydroxymethyl)oxolan-2-yl]purin-6-yl}amino)pyrrolidinyl 2-naphthyl ketone [CVT 4612]”, the Ki is above 5 µM. Same read-out and setting: the same measure for `OC[C@@H]1C[C@@H](O)[C@H](n2cnc3c(N[C@H]4CCC[C@@H]4O)ncnc32)O1` [CVT 4625, (5S,2R,3R)-2-{6-[((1S,2S)-2-hydroxycyclopentyl)amino]purin-9-yl}-5-(hydroxymethyl)oxolan-3-ol]: 4.09 µM and 3.69 µM; for `OC[C@@H]1C[C@@H](O)[C@H](n2cnc3c(N[C@@H]4CCCC4O)nc(Cl)nc32)O1` (stereo partly drawn) [CVT 4626, 2-{6-[((1R)-2-hydroxycyclopentyl)amino]-2-chloropurin-9-yl}(5S,2R,3R)-5-(hydroxymethyl)oxolan-3-ol]: 4.01 µM and 3.5 µM. As for “(3R)-3-({9-[(5S,2R,3R)-3-hydroxy-5-(hydroxymethyl)oxolan-2-yl]purin-6-yl}amino)pyrrolidinyl 3-fluorophenyl ketone [CVT 4613]”, the Ki was above 5 µM.

Consider `OC[C@@H]1C[C@@H](O)[C@H](n2cnc3c(N[C@@H]4CCOC4)ncnc32)O1` [CVT 3454, 2-{6-[((3R)oxolan-3-yl)amino]purin-9-yl}(5S,2R,3R)-5-(hydroxymethyl)oxolan-3-ol], for which the Ki turned out to be 1 µM.

Consider `O=S(=O)(c1ccccc1)N1CC[C@@H](Nc2ncnc3c2ncn3[C@@H]2O[C@H](CO)C[C@H]2O)C1` [CVT 4629, (3R)-3-({9-[(5S,2R,3R)-3-hydroxy-5-(hydroxymethyl)oxolan-2-yl]purin-6-yl}amino)-1-(phenylsulfonyl)pyrrolidine], for which the Ki is above 5 µM. Same read-out and setting: in the case of “1-[(3R)-3-({9-[(5S,2R,3R)-3-hydroxy-5-(hydroxymethyl)oxolan-2-yl]purin-6-yl}amino)pyrrolidinyl]-2-methylpropan-1-one [CVT 4614]” it was above 5 µM; in that of “(3R)-3-({9-[(5S,2R,3R)-3-hydroxy-5-(hydroxymethyl)oxolan-2-yl]purin-6-yl}amino)pyrrolidinyl 4-ethylphenyl ketone [CVT 4611]”, above 5 µM. As for “(3R)-3-({9-[(5S,2R,3R)-3-hydroxy-5-(hydroxymethyl)oxolan-2-yl]purin-6-yl}amino)pyrrolidinyl naphthyl ketone [CVT 4627]”, the Ki is 1.91 µM and 2.56 µM. Take “4-{[(3R)-3-({9-[(5S,2R,3R)-3-hydroxy-5-(hydroxymethyl)oxolan-2-yl]purin-6-yl}amino)pyrrolidinyl]carbonyl}benzenecarbonitrile [CVT 4608]”: the Ki was above 5 µM.

“(3R)-3-({9-[(5S,2R,3R)-3-hydroxy-5-(hydroxymethyl)oxolan-2-yl]purin-6-yl}amino)pyrrolidinyl 4-methoxyphenyl ketone [CVT 4609]”: the Ki is above 5 µM.
